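Values below derive from 48-hour exposures of cells grown in 96-well plates, with endpoints linearly interpolated between the two concentrations bracketing the appropriate inhibition level. GI50 is the concentration that inhibits growth by half. The concentration for full growth arrest is given as TGI.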
Key:
Experiment in all cases: NCI tumour cell line growth inhibition, 48 h
OVCAR-3 ovarian = test system: OVCAR-3 ovarian
ACHN renal = test system: ACHN renal
SF-539 CNS = test system: SF-539 CNS
HCT-15 colon = test system: HCT-15 colon
CAKI-1 renal = test system: CAKI-1 renal
TK-10 renal = test system: TK-10 renal
NCI-H522 lung = test system: NCI-H522 lung
COLO 205 colon = test system: COLO 205 colon
SN12C renal = test system: SN12C renal
OVCAR-4 ovarian = test system: OVCAR-4 ovarian

| SMILES | TGI (OVCAR-3 ovarian) | TGI (ACHN renal) | TGI (SF-539 CNS) | TGI (HCT-15 colon) | TGI (CAKI-1 renal) | TGI (TK-10 renal) | TGI (NCI-H522 lung) | TGI (COLO 205 colon) | TGI (SN12C renal) | GI50 (OVCAR-3 ovarian) | GI50 (ACHN renal) | GI50 (SF-539 CNS) | GI50 (TK-10 renal) | GI50 (NCI-H522 lung) | GI50 (COLO 205 colon) | GI50 (SN12C renal) | GI50 (OVCAR-4 ovarian) | TGI (OVCAR-4 ovarian) | GI50 (HCT-15 colon) | GI50 (CAKI-1 renal) |
| --- | --- | --- | --- | --- | --- | --- | --- | --- | --- | --- | --- | --- | --- | --- | --- | --- | --- | --- | --- | --- |
| OC1(c2ccccc2)C2CC=CC2C1(c1ccccc1)c1ccccc1 (configuration not stated) | > 100 µM | > 100 µM | > 100 µM | > 100 µM | 60.1 µM | > 100 µM | 32.7 µM | 44.6 µM | > 100 µM | – | – | – | – | – | – | – | – | – | – | – |
| C=C(C)[C@@H]1CCC=C2CC[C@]3(C)[C@H](CC[C@@H]4[C@@]5(C)CCCNC(C)(C)[C@@H]5CC[C@]43C)[C@H]21 | 3.29 µM | 3.25 µM | 3.58 µM | – | – | 4.98 µM | 5.64 µM | 3.65 µM | 3.48 µM | 1.8 µM | 1.85 µM | 1.89 µM | 2.02 µM | 2.28 µM | 1.9 µM | 1.79 µM | – | – | – | – |
| CCCCC(SC(=S)N1CCCC1)C(=O)Nc1nc(CC(=O)OCC)cs1 (configuration not stated) | > 100 µM | > 100 µM | > 100 µM | > 100 µM | > 100 µM | > 100 µM | > 100 µM | – | > 100 µM | 9.52 µM | 59.3 µM | 72.4 µM | > 100 µM | 6.87 µM | – | 85.2 µM | 43.4 µM | > 100 µM | 66.1 µM | > 100 µM |
| CCCCNNC(=O)c1ccc(Br)cc1 | > 50 µM | > 36.1 µM | > 50 µM | > 50 µM | > 27 µM | 12.2 µM | > 22 µM | 9.92 µM | > 50 µM | 5.26 µM | 2.67 µM | 1.76 µM | 1.31 µM | 1.27 µM | 2.21 µM | 15.4 µM | 4.79 µM | > 50 µM | 6.87 µM | 2.88 µM |
| CCC(=O)N1C/C(=C/c2ccc(Cl)cc2)C(=O)/C(=C/c2ccc(Cl)cc2)C1 | 1.75 µM | 1.98 µM | 1.91 µM | 1.25 µM | 7.85 µM | 3.52 µM | 2.4 µM | 1.95 µM | 2.05 µM | 0.622 µM | 0.745 µM | 0.69 µM | 1.76 µM | 0.973 µM | 0.757 µM | 0.711 µM | 0.836 µM | 2.86 µM | 0.386 µM | 2.25 µM |
| C=CO/N=[N+](\[O-])N(CC)CC | > 100 µM | > 100 µM | > 100 µM | > 100 µM | > 100 µM | > 100 µM | > 100 µM | > 100 µM | > 100 µM | – | – | – | – | – | – | – | – | > 100 µM | – | – |
| C=C1C(=O)O[C@H]2[C@H]1CC/C(COC(=O)CCCCCC(=O)OC/C1=C/CC[C@@]3(C)O[C@H]3[C@H]3OC(=O)C(=C)[C@@H]3CC1)=C\CC[C@@]1(C)O[C@@H]21 | 2.38 µM | 3.1 µM | 3.58 µM | 3.81 µM | – | 5.7 µM | 3.44 µM | 3.32 µM | 11.5 µM | 1.11 µM | 1.4 µM | 1.67 µM | 2.58 µM | 1.72 µM | 1.46 µM | 2.86 µM | 2.92 µM | 15.3 µM | 1.68 µM | – |
| C=C1CC(CC)(CCN2C(=O)c3ccccc3C2=O)OC1=O (configuration not stated) | – | 28.6 µM | 46.6 µM | 31.6 µM | 7.59 µM | 32.3 µM | 11.8 µM | 30.3 µM | 45.5 µM | – | – | – | – | – | – | – | – | 27.8 µM | – | – |
| Nc1ccn(C2CC(F)C(CO)O2)c(=O)n1 (configuration not stated) | > 100 µM | > 100 µM | > 100 µM | > 100 µM | > 100 µM | > 100 µM | > 100 µM | > 100 µM | > 100 µM | > 100 µM | > 100 µM | > 100 µM | > 100 µM | > 100 µM | > 100 µM | > 100 µM | > 100 µM | > 100 µM | > 100 µM | > 100 µM |
| C#C[C@]1(O)CC[C@H]2[C@@H]3CC=C4c5sc(Nc6cc(F)ccc6F)nc5CC[C@]4(C)[C@H]3CC[C@@]21C | 3.16 µM | 2.9 µM | 1.74 µM | 4.84 µM | 2.79 µM | 5.37 µM | 5.6 µM | 4.81 µM | 5.23 µM | 1.62 µM | 1.44 µM | 0.389 µM | 2.58 µM | 2.08 µM | 2.05 µM | 2.15 µM | 3.25 µM | 11.4 µM | 1.53 µM | 1.38 µM |
| CCCn1c2c(c3c(O)cccc31)C(=O)c1ccccc1-2 | > 100 µM | 45.1 µM | – | > 100 µM | 61.9 µM | > 100 µM | > 100 µM | > 100 µM | 98.5 µM | 31.3 µM | 14.9 µM | – | 16.4 µM | 23 µM | > 100 µM | 21.9 µM | 0.0961 µM | 6.12 µM | 34.1 µM | 20.2 µM |
| Cn1cnc(N)c(N=O)c1=O | > 10 µM | > 10 µM | > 10 µM | > 10 µM | > 10 µM | > 10 µM | > 10 µM | > 10 µM | > 10 µM | – | – | – | – | – | – | – | – | > 10 µM | – | – |
| COC(=O)CCC(NC(=S)N/N=C(\C)c1ccc[nH]1)C(=O)OC (configuration not stated) | > 100 µM | > 100 µM | > 100 µM | > 100 µM | – | > 100 µM | > 100 µM | > 100 µM | > 100 µM | – | – | – | – | – | – | – | – | > 100 µM | – | – |
| Cc1cc(N(CCC#N)S(=O)(=O)c2ccccc2)ccc1/C=C1\N=C(c2ccc(Cl)cc2)OC1=O | > 100 µM | > 100 µM | > 100 µM | > 100 µM | > 100 µM | – | – | > 100 µM | > 100 µM | – | – | – | – | – | – | – | – | > 100 µM | – | – |
| C#CC1(O)CCC2C3CCc4cc(Oc5nc(F)nc(-c6c7ccccc7c7n6CCS7)n5)ccc4C3CC[C@@]21C (some centres not stated) | 32.2 µM | > 100 µM | 33 µM | 54.3 µM | 73 µM | 71.3 µM | 20.9 µM | 70 µM | – | – | – | – | – | – | – | – | – | 68.6 µM | – | – |
